Laboratory results reported in patent publication US9101569B2, “Methods for the treatment of insulin resistance” (UNIVERSITE DE GENEVE, priority 2010, dated 2015).
*1 amine or outer side, *2 acyl side, *3 side chain or, on linkers, in order; H or OH if unused. Where a SMILES comes first, the peptide text is derived from it. Bridges are numbered along the chain shown (N, C = ends). X1 = O=C(CCC[*:2])[*:1]

Tests used:
[1] = test system: differentiated 3T3-L1 adipocytes; experiment: Lipid metabolism in differentiated 3T3-L1 adipocytes in vitro; type: cell-based, Murine; conditions: incubated in the presence of OEA
Description: The in vitro effect of OT on lipid metabolism in differentiated 3T3-L1 adipocytes was assayed as follows. Murine 3T3-L1 fibroblasts were differentiated towards a […] phenotype as previously described (Olson et al., 1997, Mol. Cell. Biol., 2425-2435). In brief, cells were cultured in Dulbecco's modified eagle medium (DMEM) with 4.5 g/l glucose supplemented with 10% heat-inactivated depleted calf serum (DCS) at 37° C./8% CO2. Cells were induced to differentiate, two days post confluence, by sequential incubations with: DMEM 4.5 g/l glucose, 10% fetal bovine serum (FCS) containing 1 μg/ml insulin, 0.25 μM dexamethasone and 0.5 mM isobutylmethylxanthane (IBMX) for 4 days; DMEM 4.5 g/l glucose, 10% FCS containing insulin alone for an additional 4 days; DMEM 4.5 g/l glucose, 10% FCS for 3-4 days. Differentiation was considered achieved when more than 90% of cells display an accumulation of large lipid droplets in their cytoplasm.

HFD-induced obese rats = experiment: High-fat diet-induced obesity rat model, subcutaneous infusion: body weight gain, food intake, body composition; type: in vivo; conditions: for food intake / body weight gain: 14 days; for body weight gain: not observed in pair-fed group
Description: Another group of the above male Wistar rats were rendered obese as described above and were subcutaneously infused with saline or OT (NeoMPS®, Strasbourg, France) (50 nmol/day/rat) during 14 days.
The beneficial metabolic effects of OT administration were assayed in the same high-fat diet induced obesity model in rats as in Example 1 and in PPAR-alpha knockout mice (Lee et al., 1995, Mol. Cell. Biol., 15(6):3012-22). HFD-induced obese animals, saline or OT groups (see conditions under Example 1) were subcutaneously infused via minipumps (Alzet®, as above). OT was delivered at a dose of 50 nmol/day/rat during 14 days.
An EchoMRI-700 quantitative nuclear magnetic resonance (QMR) analyzer (Echo Medical Systems, Houston, Tex.) was used to measure total fat mass and lean body mass in rats at the beginning and the end of the treatment.
The beneficial metabolic effects of administration of an oxytocin derivative according to the invention (Carbetocin) were assessed in the same rat model of high-fat diet induced obesity as in Example 1. HFD-induced obese animals were subcutaneously infused via minipumps (Alzet®, as above) with saline or carbetocin (Bachem) (5 nmol/day/rat or 50 nmol/day/rat) during 14 days.
Body composition parameters were measured by quantitative nuclear magnetic resonance as described in Example 3 at the beginning and 10 days of treatment.

Row | Structure (SMILES) | mRNA expression of PPAR-alpha [1] | mRNA expression of most of the PPAR-alpha related genes (Acadm, Acox1, Ehhadh, Ucp3) [1] | food intake (HFD-induced obese rats; s.c. 5 nmol/day) | body weight gain (HFD-induced obese rats; s.c. 5 nmol/day) | food intake (HFD-induced obese rats; s.c. 50 nmol/day) | body weight gain (HFD-induced obese rats; s.c. 50 nmol/day) | fat mass (QMR) (HFD-induced obese rats; s.c. carbetocin (5 nmol/d and 50 nmol/d groups), 10 days, independent of food intake)
1 | CCCCCCCC/C=C\CCCCCCCC(=O)NCCO [OEA, Oleoylethanolamide] | induce | induce | – | – | – | – | –
2 | CC[C@H](C)[C@@H]1NC(=O)[C@H](Cc2ccc(OC)cc2)NC(=O)CCCSC[C@@H](C(=O)N2CCC[C@H]2C(=O)N[C@@H](CC(C)C)C(=O)NCC(N)=O)NC(=O)[C@H](CC(N)=O)NC(=O)[C@H](CCC(N)=O)NC1=O [carbetocin, Butyryl-Tyr(Me)-Ile-Gln-Asn-Cys-Pro-Leu-Gly-NH2] (Y(Me)IQNCPLG-NH2; linker N-5 via X1) | – | – | decreased | decreased | decreased | decreased | significant decrease
